Experiment [1] deals with PRI50V. The following applies: mutant PRI50V; ref [22], [23]; cited from earlier work.
Experiment [2] deals with PRD30N. The following applies: mutant PRD30N; ref [22], [23]; cited from earlier work.
For experiment [3], the system named is PRV82A (PR with V82A mutation). The experiment can be described thus: Fluorescence assay of HIV-1 protease inhibition. The following applies: PRV82A vs PRWT. The class given is biochemical.
Experiment [4] has as its system PRI54M (PR with I54M mutation). The experiment can be described thus: Fluorescence assay of HIV-1 protease inhibition. It is filed as biochemical. The following applies: PRI54M vs PRWT.

In general, Ki refers to the equilibrium dissociation constant of an inhibitor or competing ligand from its target.

Turning to `CC(C)CN(C[C@@H](O)[C@H](Cc1ccccc1)NC(=O)O[C@H]1CO[C@H]2OCC[C@H]21)S(=O)(=O)c1ccc(N)cc1` [DRV, darunavir], the figures for the Ki in experiment [1] and in experiment [2] were at most 18 nM and 6.6 nM, respectively.
In the case of `COc1ccc(S(=O)(=O)N(CC(C)C)C[C@@H](O)[C@H](Cc2ccccc2)NC(=O)O[C@H]2CO[C@H]3O[C@@H]4OCC[C@@H]4[C@H]32)cc1` [Compound 1, GRL-0519], the “increased Ki relative to PRWT” value in experiment [3] and in experiment [4] was 6-7 fold in each case.

The values above are taken from article PMC3574189 (Journal of medicinal chemistry, 2013).
